Assay results as given in patent US12661410B2, “Compounds for targeted degradation of RET” (C4 Therapeutics, Inc., priority 2020, dated 2026).
Residue numbers refer to the chain shown, from its start.

Legend:
RET (658-1114) = target: T1, RET (658-1114) (Homo sapiens, UniProt P07949); test: HiBiT-Degradation, RET wild-type degradation assay (Nano-Glo HiBiT Lytic), 293T.144 cells; type: cell-based; conditions: for Emax / DC50: 6.0 hours; for Emax: % remaining protein, read-out: 293T.144 RET (658-1114) 6.0 hours (Emax); for DC50: half-maximal degradation concentration, read-out: 293T.144 RET (658-1114) 6.0 hours (DC50)
T1 construct: 658-1114; expressed in transfected cells; host or cells: 293T.144 (293T cells, generated in-house)
T1 sequence (P07949 658-1114): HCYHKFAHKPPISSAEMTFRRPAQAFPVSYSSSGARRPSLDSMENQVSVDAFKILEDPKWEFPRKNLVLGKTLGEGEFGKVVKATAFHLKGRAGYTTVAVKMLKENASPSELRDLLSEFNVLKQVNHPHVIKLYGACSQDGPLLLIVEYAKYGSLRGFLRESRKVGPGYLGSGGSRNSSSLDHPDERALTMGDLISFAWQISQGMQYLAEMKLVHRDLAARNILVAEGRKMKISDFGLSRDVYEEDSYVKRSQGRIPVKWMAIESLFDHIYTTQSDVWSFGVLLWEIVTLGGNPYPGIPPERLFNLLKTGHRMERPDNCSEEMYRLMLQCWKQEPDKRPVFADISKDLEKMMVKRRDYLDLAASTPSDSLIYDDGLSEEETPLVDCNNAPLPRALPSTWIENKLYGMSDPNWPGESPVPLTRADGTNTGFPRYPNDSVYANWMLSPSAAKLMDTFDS
Description: (§1) Dulbecco's modified Eagle medium (DMEM) no-phenol red media and fetal bovine serum (FBS) were purchased from Gibco (Grand Island, NY, USA). Cell lines ectopically expressing wild-type or G810R RET kinase domain fused with a HiBiT tag were generated in-house (293T. 144 and 293T. 165, respectively). Cell culture flasks and 384-well microplates were acquired from VWR (Radnor, PA, USA). The Nano-Glo® HiBiT Lytic Assay System was purchased from Promega (Madison, WI, USA).
(§2) RET wild-type (WT) and G810R degradation were assessed using the Nano-Glo® HiBiT Lytic assay (Promega, Medison, WI, USA). To determine the effect of degraders on protein levels, cells were plated in 384-well plates and treated with compounds of interest in duplicates for 6 hours using an 11-point half-log dilution series, with the highest dose set at 10 μM. Cell lysis and addition of the Nano-Glo® HiBiT Lytic Assay reagents was then performed. Luminescence signal was measured using an EnVision™ Multimode plate reader (Perkin Elmer, Santa Clara, CA, USA). The half-maximal degradation concentration (DC50) and % remaining protein (Emax) was then derived from the dose-response curves.

RET(KD: 658-1114 G810R) = target: T2, RET(KD: 658-1114 G810R) (Homo sapiens, UniProt P07949, G810R); test: HiBiT-Degradation, RET G810R degradation assay (Nano-Glo HiBiT Lytic), 293T.165 cells; type: cell-based; conditions: for Emax / DC50: 6.0 hours; for Emax: % remaining protein, read-out: 293T.165 RET(KD: 658-1114 G810R) 6.0 hours (Emax); for DC50: half-maximal degradation concentration, read-out: 293T.165 RET(KD: 658-1114 G810R) 6.0 hours (DC50)
T2 construct: 658-1114; expressed in transfected cells; host or cells: 293T.165 (293T cells, generated in-house)
T2 sequence (P07949 658-1114 G810R): T1 sequence (P07949 658-1114) with G153R
Description: as §1, §2

Row | SMILES | 293T.144 RET (658-1114) 6.0 hours (IP) [nM] (RET (658-1114)) | Emax (RET (658-1114)) [%] | DC50 (RET (658-1114)) [nM] | 293T.165 RET(KD: 658-1114 G810R) 6.0 hours (IP) [nM] (RET(KD: 658-1114 G810R)) | Emax (RET(KD: 658-1114 G810R)) [%] | DC50 (RET(KD: 658-1114 G810R)) [nM]
1 | N#Cc1cnn2cc(-c3cnn([C@H]4CC[C@H](N5CCN(c6c(F)cc(NC7CCC(=O)NC7=O)cc6F)CC5)CC4)c3)nc(-c3ccc(N4CC[C@H](OCc5ccccn5)C4)nc3)c12 (mixture of isomers) [Compound 211, 6-[1-[4-[4-[4-[(2,6-dioxo-3-piperidyl)amino]-2,6-difluoro-phenyl]piperazin-1-yl]cyclohexyl]pyrazol-4-yl]-4-[6-[rac-(3S)-3-(2-pyridylmethoxy)pyrrolidin-1-yl]-3-pyridyl]pyrazolo[1,5-a]pyrazine-3-carbonitrile] | ++++ (<50 nM = ++++) | < 30 | < 50 | ++++ (<50 nM = ++++) | < 30 | < 50
2 | CCOc1ccc(CN2[C@@H]3COC[C@H]2CN(c2ccc(-c4nc(-c5cnn([C@H]6CC[C@H](N7CCN(c8c(F)cc(NC9CCC(=O)NC9=O)cc8F)CC7)CC6)c5)cn5ncc(C#N)c45)cn2)C3)cn1 (mixture of isomers) [Compound 212, 6-[1-[4-[4-[4-[(2,6-dioxo-3-piperidyl)amino]-2,6-difluoro-phenyl]piperazin-1-yl]cyclohexyl]pyrazol-4-yl]-4-[6-[rac-(1R,5S)-9-[(6-ethoxy-3-pyridyl)methyl]-3-oxa-7,9-diazabicyclo[3.3.1]nonan-7-yl]-3-pyridyl]pyrazolo[1,5-a]pyrazine-3-carbonitrile] | ++++ (<50 nM = ++++) | < 30 | < 50 | +++ (<100 nM = +++) | < 30 | < 100
3 | CC(C)Oc1ccc(CN2[C@@H]3COC[C@H]2CN(c2ccc(-c4nc(-c5cnn([C@H]6CC[C@H](N7CCN(c8c(F)cc(NC9CCC(=O)NC9=O)cc8F)CC7)CC6)c5)cn5ncc(C#N)c45)cn2)C3)cn1 (mixture of isomers) [Compound 213, 6-[1-[4-[4-[4-[(2,6-dioxo-3-piperidyl)amino]-2,6-difluoro-phenyl]piperazin-1-yl]cyclohexyl]pyrazol-4-yl]-4-[6-[rac-(1R,5S)-9-[(6-isopropoxy-3-pyridyl)methyl]-3-oxa-7,9-diazabicyclo[3.3.1]nonan-7-yl]-3-pyridyl]pyrazolo[1,5-a]pyrazine-3-carbonitrile] | ++++ (<50 nM = ++++) | < 30 | < 50 | +++ (<100 nM = +++) | < 30 | < 100
4 | N#Cc1cnn2cc(-c3cnn([C@H]4CC[C@H](N5CCN(c6c(F)cc(N[C@@H]7CCC(=O)NC7=O)cc6F)CC5)CC4)c3)nc(-c3ccc(N4CCC5(CC4)OCc4cccnc45)nc3)c12 (racemic) [Compound 218, 6-[1-[4-[4-[2,6-difluoro-4-[[rac-(3R)-2,6-dioxo-3-piperidyl]amino]phenyl]piperazin-1-yl]cyclohexyl]pyrazol-4-yl]-4-(6-spiro[5H-furo[3,4-b]pyridine-7,4′-piperidine]-1′-yl-3-pyridyl)pyrazolo[1,5-a]pyrazine-3-carbonitrile] | ++++ (<50 nM = ++++) | < 30 | < 50 | ++++ (<50 nM = ++++) | < 30 | < 50
5 | CCC1(C(=O)NC(C)(C)C)CCN(c2ccc(-c3nc(-c4cnn([C@H]5CC[C@H](N6CCN(c7c(F)cc(N[C@@H]8CCC(=O)NC8=O)cc7F)CC6)CC5)c4)cn4ncc(C#N)c34)cn2)CC1 (racemic) [Compound 219, N-tert-butyl-1-[5-[3-cyano-6-[1-[4-[4-[2,6-difluoro-4-[[rac-(3R)-2,6-dioxo-3-piperidyl]amino]phenyl]piperazin-1-yl]cyclohexyl]pyrazol-4-yl]pyrazolo[1,5-a]pyrazin-4-yl]-2-pyridyl]-4-ethyl-piperidine-4-carboxamide] | ++++ (<50 nM = ++++) | < 30 | < 50 | +++ (<100 nM = +++) | < 30 | < 50
6 | CC(C)NC(=O)C1(C)CCN(c2ccc(-c3cc(-c4ccc(N5CCN(C(=O)CC6(O)CCN(c7ccc(CN8CCC(=O)NC8=O)cc7)CC6)CC5)cc4)cn4ncc(C#N)c34)cn2)CC1 [Compound 33, 1-[5-[3-cyano-6-[4-[4-[2-[1-[4-[(2,4-dioxohexahydropyrimidin-1-yl)methyl]phenyl]-4-hydroxy-4-piperidyl]acetyl]piperazin-1-yl]phenyl]pyrazolo[1,5-a]pyridin-4-yl]-2-pyridyl]-N-isopropyl-4-methyl-piperidine-4-carboxamide] | – | – | – | – | < 70 | > 1000

Other lines, results leading:

Row | 293T.144 RET (658-1114) 6.0 hours (IP) [nM] (RET (658-1114)) | Emax (RET (658-1114)) [%] | DC50 (RET (658-1114)) [nM] | 293T.165 RET(KD: 658-1114 G810R) 6.0 hours (IP) [nM] (RET(KD: 658-1114 G810R)) | Emax (RET(KD: 658-1114 G810R)) [%] | DC50 (RET(KD: 658-1114 G810R)) [nM] | SMILES
7 | – | – | – | – | < 50 | < 1000 | CCC1(C(=O)N[C@H](C)C(F)(F)F)CCN(c2ccc(-c3cc(-c4cnn(C5CCN(C(=O)CN6CCC(c7ccc(NC8CCC(=O)NC8=O)cc7F)CC6)CC5)c4)cn4ncc(C#N)c34)cn2)CC1 (stereo partly drawn) [Compound 7, 1-[5-[3-cyano-6-[1-[1-[2-[4-[4-[(2,6-dioxo-3-piperidyl)amino]-2-fluoro-phenyl]-1-piperidyl]acetyl]-4-piperidyl]pyrazol-4-yl]pyrazolo[1,5-a]pyridin-4-yl]-2-pyridyl]-4-ethyl-N-[(1R)-2,2,2-trifluoro-1-methyl-ethyl]piperidine-4-carboxamide]
8 | – | – | – | – | < 50 | < 1000 | N#Cc1cnn2cc(-c3ccc(N4CCN(C(=O)CN5CCC(c6ccc(NC7CCC(=O)NC7=O)cc6)CC5)CC4)cc3)cc(-c3ccc(C4(CO)CCCCC4)nc3)c12 (stereo not shown) [Compound 21, 6-(4-(4-(2-(4-(4-((2,6-Dioxopiperidin-3-yl)amino)phenyl)piperidin-1-yl)acetyl)piperazin-1-yl)phenyl)-4-(6-(1-(hydroxymethyl)cyclohexyl)pyridin-3-yl)pyrazolo[1,5-a]pyridine-3-carbonitrile]
9 | – | – | – | – | < 50 | < 1000 | CCC1(C(=O)NC(C)C)CCN(c2ccc(-c3cc(-c4ccc(N5CCN(C(=O)CN6CCC(c7ccc(C8CCC(=O)NC8=O)cc7)CC6)CC5)cc4)cn4ncc(C#N)c34)cn2)CC1 (stereo not shown) [Compound 29, 1-(5-(3-Cyano-6-(4-(4-(2-(4-(4-(2,6-dioxopiperidin-3-yl)phenyl)piperidin-1-yl)acetyl)piperazin-1-yl)phenyl)pyrazolo[1,5-a]pyridin-4-yl)pyridin-2-yl)-4-ethyl-N-isopropylpiperidine-4-carboxamide]
10 | – | – | – | – | < 50 | < 1000 | CCC1(C(=O)NC(C)C)CCN(c2ccc(-c3cc(-c4cnc(N5CCN(C(=O)CN6CCC(c7ccc(NC8CCC(=O)NC8=O)cc7F)CC6)CC5)nc4)cn4ncc(C#N)c34)cn2)CC1 (stereo not shown) [Compound 37, 1-(5-(3-Cyano-6-(2-(4-(2-(4-(4-((2,6-dioxopiperidin-3-yl)amino)-2-fluorophenyl)piperidin-1-yl)acetyl)piperazin-1-yl)pyrimidin-5-yl)pyrazolo[1,5-a]pyridin-4-yl)pyridin-2-yl)-4-ethyl-N-isopropylpiperidine-4-carboxamide]
